Source: ChEMBL document CHEMBL3853265 (Medchemcomm, 2016)
Values after ≈ are worked out from the molar mass of the structure shown.

Legend:
[1] = system: Rattus norvegicus; assay: Toxicity in po dosed Wistar Han rat assessed as drug tolerance administered for 14 days; type: organism-based; settings: in vivo, 336 h
[2] = molecular target: T1, Solute carrier family 22 member 12 (Homo sapiens, UniProt Q96S37); assay: Inhibition of human C-terminal eGFP-tagged URAT1 long isoform expressed in CHO cells assessed as decrease in [14C]-uric acid uptake preincubated for 15 mins followed by [14C]-uric acid addition and incubated in dark for 3 hrs by scintillation counting method; type: cell-based
T1 sequence (Q96S37 whole entry): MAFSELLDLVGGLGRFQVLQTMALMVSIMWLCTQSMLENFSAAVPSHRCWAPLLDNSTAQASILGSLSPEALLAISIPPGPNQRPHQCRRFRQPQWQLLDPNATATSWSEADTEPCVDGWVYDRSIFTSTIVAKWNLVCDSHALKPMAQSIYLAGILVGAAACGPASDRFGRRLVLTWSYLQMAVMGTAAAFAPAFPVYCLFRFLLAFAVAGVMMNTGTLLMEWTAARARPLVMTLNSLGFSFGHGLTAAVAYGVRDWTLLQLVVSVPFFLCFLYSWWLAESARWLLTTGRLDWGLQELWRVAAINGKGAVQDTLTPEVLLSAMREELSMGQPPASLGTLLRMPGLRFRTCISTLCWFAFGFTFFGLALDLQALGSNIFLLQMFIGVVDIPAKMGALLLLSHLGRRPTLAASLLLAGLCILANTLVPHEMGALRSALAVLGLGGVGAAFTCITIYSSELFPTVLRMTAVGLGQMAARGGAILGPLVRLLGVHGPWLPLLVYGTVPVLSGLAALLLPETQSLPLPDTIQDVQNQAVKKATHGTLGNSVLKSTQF

[3] = Dissociation constant, pKa of the compound; type: physicochemical
[4] = Intrinsic clearance in human liver microsomes; type: ADME; settings: read-out: CLH
[5] = Solubility of the compound at pH 6.5; type: physicochemical; settings: buffer
[6] = Intrinsic clearance in dog hepatocytes assessed per 10^6 cells; type: ADME, cell-based, Canis lupus familiaris, Hepatocyte
[7] = Fraction unbound in human plasma; type: ADME, cell-free
[8] = Fraction unbound in dog plasma; type: ADME, cell-free, Canis lupus familiaris
[9] = molecular target: T2, Solute carrier organic anion transporter family member 2B1 (Homo sapiens, UniProt O94956); assay: Drug uptake assessed as human OATP2B1-mediated drug accumulation by cell-based assay relative to wild type protein; type: ADME
T2 sequence (O94956 whole entry): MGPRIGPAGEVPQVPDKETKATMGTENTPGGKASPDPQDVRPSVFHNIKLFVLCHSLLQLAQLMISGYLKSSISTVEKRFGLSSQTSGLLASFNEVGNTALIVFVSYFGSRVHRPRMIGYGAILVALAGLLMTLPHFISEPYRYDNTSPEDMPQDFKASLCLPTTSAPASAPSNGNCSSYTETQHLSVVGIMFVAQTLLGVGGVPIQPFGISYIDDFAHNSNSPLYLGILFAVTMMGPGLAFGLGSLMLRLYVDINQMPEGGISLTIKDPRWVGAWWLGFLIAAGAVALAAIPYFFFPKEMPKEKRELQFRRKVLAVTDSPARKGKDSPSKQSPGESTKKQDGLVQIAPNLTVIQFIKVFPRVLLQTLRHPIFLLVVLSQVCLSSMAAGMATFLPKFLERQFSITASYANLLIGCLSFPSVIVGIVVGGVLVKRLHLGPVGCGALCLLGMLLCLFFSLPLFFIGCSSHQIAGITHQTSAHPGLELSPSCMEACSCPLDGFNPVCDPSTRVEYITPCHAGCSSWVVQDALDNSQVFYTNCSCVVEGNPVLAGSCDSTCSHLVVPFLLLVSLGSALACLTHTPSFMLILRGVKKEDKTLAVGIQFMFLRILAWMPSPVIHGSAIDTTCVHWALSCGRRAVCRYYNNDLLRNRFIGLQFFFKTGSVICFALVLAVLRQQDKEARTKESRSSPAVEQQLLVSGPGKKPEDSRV

[10] = molecular target: T3, Organic anion transporter 3 (Homo sapiens, UniProt Q8TCC7); assay: Inhibition of OAT3 (unknown origin)
T3 sequence (Q8TCC7 whole entry): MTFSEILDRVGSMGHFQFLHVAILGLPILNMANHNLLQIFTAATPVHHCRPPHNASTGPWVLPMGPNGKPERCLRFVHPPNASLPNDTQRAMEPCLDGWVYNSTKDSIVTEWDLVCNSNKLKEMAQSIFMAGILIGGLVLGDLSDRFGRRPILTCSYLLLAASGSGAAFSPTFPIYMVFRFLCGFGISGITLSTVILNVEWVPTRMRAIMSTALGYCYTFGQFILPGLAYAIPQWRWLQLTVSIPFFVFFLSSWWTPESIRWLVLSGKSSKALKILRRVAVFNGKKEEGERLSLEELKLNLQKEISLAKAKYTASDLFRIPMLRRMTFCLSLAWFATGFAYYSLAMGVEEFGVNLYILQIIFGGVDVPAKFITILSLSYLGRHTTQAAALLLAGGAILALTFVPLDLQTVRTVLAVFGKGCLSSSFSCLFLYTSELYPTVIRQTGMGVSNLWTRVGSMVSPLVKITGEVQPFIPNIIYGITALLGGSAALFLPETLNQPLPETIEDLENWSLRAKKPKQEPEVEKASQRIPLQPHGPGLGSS

[11] = molecular target: T4, Solute carrier family 22 member 11 (Homo sapiens, UniProt Q9NSA0); assay: Inhibition of OAT4 (unknown origin)
T4 sequence (Q9NSA0 whole entry): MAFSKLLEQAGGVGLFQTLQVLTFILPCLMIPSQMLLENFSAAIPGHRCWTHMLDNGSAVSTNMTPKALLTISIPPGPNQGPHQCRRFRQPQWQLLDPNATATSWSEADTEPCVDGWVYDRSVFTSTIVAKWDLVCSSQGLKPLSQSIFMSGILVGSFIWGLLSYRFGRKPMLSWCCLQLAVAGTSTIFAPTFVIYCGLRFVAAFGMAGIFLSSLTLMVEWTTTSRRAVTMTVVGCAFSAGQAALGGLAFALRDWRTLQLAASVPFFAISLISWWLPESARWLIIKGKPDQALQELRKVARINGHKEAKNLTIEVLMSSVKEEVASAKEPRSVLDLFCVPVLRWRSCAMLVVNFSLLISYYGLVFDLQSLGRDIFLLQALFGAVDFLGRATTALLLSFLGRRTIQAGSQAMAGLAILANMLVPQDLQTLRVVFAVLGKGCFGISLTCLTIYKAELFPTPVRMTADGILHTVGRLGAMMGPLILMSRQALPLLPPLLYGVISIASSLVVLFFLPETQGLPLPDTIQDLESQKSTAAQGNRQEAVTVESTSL

[12] = Cytotoxicity against THLE cells; type: toxicity, cell-based; settings: human
[13] = Mutagenicity in […] by Ames test in presence of […]; type: toxicity
[14] = Volume of distribution at steady state in rat at 1 mg/kg, iv and 3 mg/kg, po; type: ADME, organism-based; settings: in vivo, read-out: Vdss
[15] = Renal clearance in rat at 1 mg/kg, iv and 3 mg/kg, po relative to GFR x fraction unbound; type: ADME, organism-based; settings: in vivo
[16] = Plasma clearance in dog at 1 mg/kg, iv and 3 mg/kg, po; type: ADME, organism-based, Canis lupus familiaris
[17] = system: Rattus norvegicus; assay: Toxicity in Wistar Han rat assessed as mortality at 300 mg/kg, po administered as single dose; type: organism-based; settings: in vivo

Row | SMILES | Activity [1] | IC50 [2] [µM] | pKa [3] | microsomal CLint [4] [µL/min/mg] | solubility [5] [µM] | CLH [6] [µL/min/1e6 cells] | fraction unbound [7] | fraction unbound [8] | fold change (FC) [9] | IC50 [10] [µM] | IC50 [11] [µM] | Activity [12] [µM] | Activity [13] | Vd [14] [L/kg] | CL [15] [%] | clearance [16] [mL/min/kg] | Activity [17]
1 | O=S(=O)(Nc1ccc(C(F)(F)F)nc1)c1ccccc1C(F)(F)F | <= 100 mg kg-1 | 0.042 | 5.1 | < 8 | 620 (≈ 230 µg/mL) | < 6 | 0.0084 | 0.01 | 1.145 | 3.3 | 9.4 | 153 | Non-Toxic | 0.4 | < 2 | – | –
2 | O=S(=O)(Nc1cncc(C(F)(F)F)c1)c1ccccc1C(F)(F)F | <= 100 mg/kg/day | 0.036 | 5.2 | 11 | 489 (≈ 181 µg/mL) | < 6 | 0.0034 | 0.057 | 0.961 | 3.4 | 8.5 | 228 | Non-Toxic | 0.14 | < 2 | 1 | Toxic
